Blank lines part the entries; values can stand above or below the compound they belong to.
How the values were obtained:
human GPR119 = molecular target: T1, human GPR119 (Homo sapiens, UniProt Q8TDV5); experiment: In vitro cyclic AMP assay (Cisbio HTRF) in HEK293 cells transfected with human GPR119; format: cell-based; conditions: cAMP; for activation at 10 µM: 1 h, % Induction @ 10 μM; for EC50: Emax varies between 65 to 80%
T1 construct: expressed in transfected cells; host or cells: HEK293 (transient transfection, Lipofectamine 2000)
T1 sequence (Q8TDV5 1-335): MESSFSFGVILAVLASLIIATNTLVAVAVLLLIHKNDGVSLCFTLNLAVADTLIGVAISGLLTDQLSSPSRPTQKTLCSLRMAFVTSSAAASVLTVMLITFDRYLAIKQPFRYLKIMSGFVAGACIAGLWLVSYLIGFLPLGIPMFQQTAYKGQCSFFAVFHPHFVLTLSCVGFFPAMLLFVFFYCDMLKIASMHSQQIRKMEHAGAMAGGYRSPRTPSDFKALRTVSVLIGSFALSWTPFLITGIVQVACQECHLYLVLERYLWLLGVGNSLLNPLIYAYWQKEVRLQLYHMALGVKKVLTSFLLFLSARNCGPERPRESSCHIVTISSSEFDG
Method: A. In Vitro Cyclic AMP Assay:
cAMP measurements were done using a Cisbio dynamic 2 HTRF kit (Cisbio, Bedford, Mass.) according to the manufacturer's protocol. Briefly, HEK293 cells (0.2×10^6/well) were plated in a 24 well plate and incubated overnight at 37° C. Cells were transfected with either empty vector DNA or human GPR119 expression plasmid DNA using Lipofectamine 2000 (Invitrogen). After 24 h, transfected cells were harvested, counted and plated at 1000 cells/5 ul in a black 384 welled small volume plate. Cells were treated with desired concentrations of compounds and incubated for 60 min at room temperature. Lysis buffer containing cAMP-d2 and cryptate conjugate were added and incubated for 1 h. HRTF ratio was measured on a microplate reader (BMG Labtech., Germany) at an excitation wavelength of 337 nm and emission wavelengths of 665 and 620 nm with an integration time of 400 μsec. Data were analyzed using Graphpad Prism (Graphpad software; San Diego Calif.) for EC50 determination.
The results are as given in Table I as % Induction@ 10 μM, Table II as % Induction@ 10 μM and EC 50 in nM

C57Bl/6J mice = experiment: Oral glucose tolerance test (OGTT) in C57Bl/6J mice; format: in vivo; conditions: single oral dose 1 h before 2.0 g/kg oral glucose, sitagliptin 10 mg/kg, vs vehicle
Method: FIG. 1 is a graph of blood glucose over time in C57BI/6J mice according to the oral glucose tolerance test (Biological Assay Procedure E) before and after oral administration of vehicle (control), compound A (Example 64@ 30 mg/kg), or sitagliptin (10 mg/kg @ 10 mg/kg).
FIG. 2 is a graph of blood glucose over time in C57BI/6J mice according to the oral glucose tolerance test (Biological Assay Procedure E) before and after oral administration of vehicle (control), compound […] (Example 42 @ 10 mg/kg), or sitagliptin (10 mg/kg @ 10 mg/kg).
E: Oral Glucose Tolerance Test (OGTT) in C57Bl/6J Mice:
After the quarantine period, 6 hr fasted animals were randomized and divided into various groups depending on their blood glucose levels. Test compounds or standard drug (sitagliptin) was prepared as a suspension in a vehicle consisting of 0.5% methylcellulose and Tween 80 as a suspending agent. The standard drug, Compound A (example-64), Compound B (example-42) or vehicle were administered by oral gavage in a volume of 10 mL/kg. 1 h after the test compounds, standard drug and vehicle administration, blood was sampled from the tail vein of mice at time 0 min (baseline) and at 30, 60, 90 and 120 min after an oral glucose load of 2.0 g/kg of body weight. Food, but not water, was withheld from the cages during the course of experiment. The area under curve (AUC) of experimental animals was compared with that of vehicle-treated control group. The results are shown in FIGS. 1 and 2 and are discussed below.

SMILES: CC(C)CC(=O)N1CCC(c2nc3cc(-c4ccc(-n5cnnn5)cc4F)ccc3o2)CC1 [EXAMPLE-40, 1-{4-[5-(2-fluoro-4-(1H-tetrazol-1-yl)phenyl]benzo[d]oxazol-2-yl]piperidin-1-yl}-3-methylbutan-1-one]
activation at 10 µM (human GPR119; Table I): 21.9%
melting point: 168 to 172 °C

SMILES: CS(=O)(=O)N1CCC(c2nc3cc(-c4ccc(-n5cnnn5)cc4F)ccc3o2)CC1 [EXAMPLE-35, 5-[2-fluoro-4-(1H-tetrazol-1-yl)phenyl]-2-[1-(methylsulfonyl)piperidin-4-yl]benzo[d]oxazole]
activation at 10 µM (human GPR119; Table I): 0.28%
melting point: 209 to 212 °C

SMILES: CC(C)OC(=O)N1CCC(c2nc3ccc(-c4ccc(C(F)F)cc4)cc3o2)CC1 [EXAMPLE-33, Isopropyl 4-{6-[4-(difluoromethyl)phenyl]benzo[d]oxazol-2-yl}piperidine-1-carboxylate]
activation at 10 µM (human GPR119; Table I): 10.6%
melting point: 149 to 153 °C

SMILES: CNC(=O)c1ccc(-c2ccc3oc(C4CCN(C(=O)OC(C)C)CC4)nc3c2)cn1 [EXAMPLE-48, Isopropyl 4-{5-[6-(methylcarbamoyl)pyridin-3-yl]benzo[d]oxazol-2-yl}piperidine-1-carboxylate]
activation at 10 µM (human GPR119; Table I): 26.7%
melting point: 158 to 161 °C

SMILES: CC(C)OC(=O)N1CCC(c2nc3cc(-c4ccc(C(N)=O)cn4)ccc3o2)CC1 [EXAMPLE-36, Isopropyl 4-[5-(5-carbamoylpyridin-2-yl)benzo[d]oxazol-2-yl]piperidine-1-carboxylate]
activation at 10 µM (human GPR119; Table I): 4.83%
melting point: 227 to 230 °C

SMILES: CC(C)(C)OC(=O)N1CCC(c2ccc3nc(-c4ccc(C(F)(F)F)cc4)oc3c2)CC1 [EXAMPLE-84, Tert-butyl 4-{2-[4-(trifluoromethyl)phenyl]benzo[d]oxazol-6-yl}piperidine-1-carboxylate]
activation at 10 µM (human GPR119; Table II): 13.2%
melting point: 174 to 179 °C

SMILES: CC(C)OC(=O)N1CCC(c2nc3cc(-c4ccc(C(=O)O)cn4)ccc3o2)CC1 [EXAMPLE-34, 6-{2-[1-(isopropoxycarbonyl)piperidin-4-yl]benzo[d]oxazol-5-yl}nicotinic acid]
melting point: 239 to 242 °C

SMILES: CNS(=O)(=O)c1ccc(-c2ccc3oc(C4CCN(C(=O)OC(C)C)CC4)nc3c2)cc1 [EXAMPLE-47, Isopropyl 4-{5-[4-(N-methylsulfamoyl)phenyl]benzo[d]oxazol-2-yl}piperidine-1-carboxylate]
activation at 10 µM (human GPR119; Table I): 33.1%
melting point: 179 to 181 °C

SMILES: COCCN1CCC(c2nc3cc(-c4ccc(-n5cnnn5)cc4F)ccc3o2)CC1 [EXAMPLE-41, 5-[2-fluoro-4-(1H-tetrazol-1-yl)phenyl]-2-[1-(2-methoxyethyl)piperidin-4-yl]benzo[d]oxazole]
melting point: 148 to 152 °C

SMILES: N[C@@H](CC(=O)N1CCn2c(nnc2C(F)(F)F)C1)Cc1cc(F)c(F)cc1F [Sitagliptin, sitagliptin, reference compound]
lowered AUCglucose (C57Bl/6J mice; FIG. 1 study, Compound A 30 mg/kg): 59%
lowered AUCglucose (C57Bl/6J mice; FIG. 2 study, Compound B 10 mg/kg): 50%

SMILES: CS(=O)(=O)c1ccc(-c2nc3cc(C4CCN(c5ncc(F)cn5)CC4)ccc3o2)c(F)c1 [EXAMPLE-81]
activation at 10 µM (human GPR119; Table II): 43%
melting point: 220 to 222 °C

SMILES: CCC(C)OC(=O)N1CCC(c2nc3cc(-c4ccc(-n5cnnn5)cc4F)ccc3o2)CC1 (stereo not drawn) [EXAMPLE-24, Sec-butyl 4-{5-[2-fluoro-4-(1H-tetrazol-1-yl)phenyl]benzo[d]oxazol-2-yl}piperidine-1-carboxylate]
activation at 10 µM (human GPR119; Table I): 67.5%
EC50 (human GPR119; Table I): ≤ 25 nM

SMILES: CC(C)OC(=O)N1CCC(c2ccc3sc(-c4ccc(S(C)(=O)=O)cc4F)nc3c2)CC1 [EXAMPLE-73]
activation at 10 µM (human GPR119; Table II): 46%
EC50 (human GPR119; Table II): 500 to 1000 nM

SMILES: CS(=O)(=O)c1ccc(-c2nc3cc(C4=CCN(S(=O)(=O)CCCO)CC4)ccc3o2)c(F)c1 [EXAMPLE-79, 3-{4-[2-(2-fluoro-4-(methylsulfonyl)phenyl)benzo[d]oxazol-5-yl]-5,6-dihydropyridin-1(2H)-ylsulfonyl}propan-1-ol]
activation at 10 µM (human GPR119; Table II): 46.2%

SMILES: O=C(OC1CCC1)N1CCC(c2nc3cc(-c4ccc(-n5cnnn5)cc4F)ccc3o2)CC1 [EXAMPLE-23, Cyclobutyl 4-{5-[2-fluoro-4-(1H-tetrazol-1-yl)phenyl]benzo[d]oxazol-2-yl}piperidine-1-carboxylate]
activation at 10 µM (human GPR119; Table I): 69.6%
EC50 (human GPR119; Table I): 25 to 50 nM

More lines, now with the values ahead:

activation at 10 µM (human GPR119; Table I): 64.8%
EC50 (human GPR119; Table I): 25 to 50 nM
melting point: 178 to 181 °C
SMILES: CC(C)OC(=O)N1CCC(c2nc3ccc(-c4ccc(C(N)=O)c(F)c4)cc3o2)CC1 [EXAMPLE-44, Isopropyl 4-[6-(4-carbamoyl-3-fluorophenyl)benzo[d]oxazol-2-yl]piperidine-1-carboxylate]

activation at 10 µM (human GPR119; Table I): 38.7%
melting point: 162 to 165 °C
SMILES: CC(C)OC(=O)N1CCC(c2nc3cc(-c4ccc(C(=O)NC5CC5)c(F)c4)ccc3o2)CC1 [EXAMPLE-50, Isopropyl 4-{5-[4-(cyclopropylcarbamoyl)-3-fluorophenyl]benzo[d]oxazol-2-yl}piperidine-1-carboxylate]

activation at 10 µM (human GPR119; Table I): 38.7%
melting point: 226 to 229 °C
SMILES: NC(=O)c1ccc(-c2ccc3oc(C4CCN(c5ncc(F)cn5)CC4)nc3c2)cc1F [EXAMPLE-51, 2-Fluoro-4-{2-[1-(5-fluoropyrimidin-2-yl)piperidin-4-yl]benzo[d]oxazol-5-yl}benzamide]

activation at 10 µM (human GPR119; Table I): 6.56%
melting point: 194 to 197 °C
SMILES: CC(C)OC(=O)N1CCC(c2nc3cc(-c4ccc(C(N)=O)cc4F)ccc3o2)CC1 [EXAMPLE-37, Isopropyl 4-[5-(4-carbamoyl-2-fluorophenyl)benzo[d]oxazol-2-yl]piperidine-1-carboxylate]

activation at 10 µM (human GPR119; Table I): 16.6%
melting point: 178 to 182 °C
SMILES: CC(C)OC(=O)N1CCC(c2nc3cc(-c4ccc(C(N)=O)cc4Cl)ccc3o2)CC1 [EXAMPLE-38, Isopropyl 4-[5-(4-carbamoyl-2-chlorophenyl)benzo[d]oxazol-2-yl]piperidine-1-carboxylate]

activation at 10 µM (human GPR119; Table I): 27.5%
melting point: 186 to 190 °C
SMILES: CC(C)CC(=O)N1CCC(c2nc3cc(-c4ccc(C(N)=O)c(F)c4)ccc3o2)CC1 [EXAMPLE-39, 2-Fluoro-4-{2-[1-(3-methylbutanoyl)piperidin-4-yl]benzo[d]oxazol-5-yl}benzamide]

activation at 10 µM (human GPR119; Table I): 32.9%
melting point: 151 to 154 °C
SMILES: CNC(=O)c1ccc(-c2ccc3oc(C4CCN(C(=O)OC(C)C)CC4)nc3c2)cc1C [EXAMPLE-49, Isopropyl 4-{5-[3-methyl-4-(methylcarbamoyl)phenyl]benzo[d]oxazol-2-yl}piperidine-1-carboxylate]

activation at 10 µM (human GPR119; Table I): 48.8%
melting point: 193 to 196 °C
SMILES: CC(C)C(=O)N1CCC(c2nc3cc(-c4ccc(C(N)=O)c(F)c4)ccc3o2)CC1 [EXAMPLE-43, 2-Fluoro-4-[2-(1-isobutyrylpiperidin-4-yl)benzo[d]oxazol-5-yl]benzamide]

activation at 10 µM (human GPR119; Table I): 53%
melting point: 147 to 150 °C
SMILES: CC(C)NC(=O)c1ccc(-c2ccc3oc(C4CCN(C(=O)OC(C)C)CC4)nc3c2)cc1F [EXAMPLE-46, Isopropyl 4-{5-[3-fluoro-4-(isopropylcarbamoyl)phenyl]benzo[d]oxazol-2-yl}piperidine-1-carboxylate]

activation at 10 µM (human GPR119; Table I): 56.4%
melting point: 145 to 147 °C
SMILES: CC(C)OC(=O)N1CCC(c2nc3cc(-c4ccc(C(=O)NCCO)c(F)c4)ccc3o2)CC1 [EXAMPLE-45, Isopropyl 4-{5-[3-fluoro-4-(2-hydroxyethylcarbamoyl)phenyl]benzo[d]oxazol-2-yl}piperidine-1-carboxylate]

Source: patent US9181214B2 (RHIZEN PHARMACEUTICALS SA, priority 2011, dated 2015)
